Measurements reported in ChEMBL document CHEMBL5143678, “Identification of Antithrombotic Natural Products Targeting the Major Substrate Binding Pocket of Protein Disulfide Isomerase” (J Nat Prod, 2022).
The source made the active and inactive calls. No cut-off for these calls is given here.

Columns and labels:
[1] = molecular target: T1, Protein disulfide-isomerase (Homo sapiens, UniProt P07237); experiment: Inhibition of recombinant His-tagged full length human PDI reductase activity assessed as inhibition of PDI/DTT-mediated cleavage of disulfide bond in insulin at 100 uM incubated for 40 mins by spectrophotometric analysis
Target sequence in this assay (P07237 18-508 limits assumed): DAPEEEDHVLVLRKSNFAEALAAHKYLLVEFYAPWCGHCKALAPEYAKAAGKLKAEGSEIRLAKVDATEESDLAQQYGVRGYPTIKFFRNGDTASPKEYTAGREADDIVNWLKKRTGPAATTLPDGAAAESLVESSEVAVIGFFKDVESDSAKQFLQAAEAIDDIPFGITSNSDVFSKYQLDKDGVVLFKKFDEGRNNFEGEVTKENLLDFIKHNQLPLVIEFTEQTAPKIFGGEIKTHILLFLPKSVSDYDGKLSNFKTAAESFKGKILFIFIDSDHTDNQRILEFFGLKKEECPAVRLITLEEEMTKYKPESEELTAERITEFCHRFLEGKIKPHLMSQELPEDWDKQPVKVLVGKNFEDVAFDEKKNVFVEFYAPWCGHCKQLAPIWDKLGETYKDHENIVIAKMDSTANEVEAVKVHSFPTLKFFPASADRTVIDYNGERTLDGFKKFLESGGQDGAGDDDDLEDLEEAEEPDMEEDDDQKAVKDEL

[2] = molecular target: T1, Protein disulfide-isomerase; experiment: Binding affinity to recombinant His-tagged full length human PDI-b' x domain substrate binding pocket expressed in Escherichia coli BL21 (DE3) cells assessed as inhibition constant at 100 uM incubated for 10 mins by tryptophan fluorescence based assay
Target sequence in this assay (P07237 whole entry): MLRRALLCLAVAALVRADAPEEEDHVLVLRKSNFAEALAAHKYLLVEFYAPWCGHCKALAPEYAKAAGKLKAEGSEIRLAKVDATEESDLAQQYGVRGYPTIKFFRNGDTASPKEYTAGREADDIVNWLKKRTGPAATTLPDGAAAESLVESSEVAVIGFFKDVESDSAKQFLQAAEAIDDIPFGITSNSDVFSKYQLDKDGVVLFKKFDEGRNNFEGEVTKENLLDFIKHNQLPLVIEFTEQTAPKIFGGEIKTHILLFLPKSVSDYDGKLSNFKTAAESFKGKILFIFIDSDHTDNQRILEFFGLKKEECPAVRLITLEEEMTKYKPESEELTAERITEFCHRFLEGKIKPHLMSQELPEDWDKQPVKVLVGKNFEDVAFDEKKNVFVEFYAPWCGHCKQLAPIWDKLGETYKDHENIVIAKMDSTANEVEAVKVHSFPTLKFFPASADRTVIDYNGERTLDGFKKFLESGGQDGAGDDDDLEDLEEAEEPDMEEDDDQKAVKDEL

[3] = molecular target: T1, Protein disulfide-isomerase; experiment: Binding affinity to recombinant His-tagged full length human PDI-b' x domain substrate binding pocket expressed in Escherichia coli BL21 (DE3) cells assessed as decrease in fluorescence intensity at 100 uM incubated for 10 mins by tryptophan fluorescence based assay
Target sequence in this assay (P07237 18-508 limits assumed): as the sequence (P07237 18-508 limits assumed) above

Mus musculus [4] = experiment: Antithrombotic activity in anesthetized ICR mouse model of electrically-induced carotid artery thrombosis assessed as delay in occlusion time at 30 mg/kg, iv; format: functional, organism-based
[5] = molecular target: T1, Protein disulfide-isomerase; experiment: Inhibition of recombinant His-tagged full length human PDI reductase activity assessed as inhibition of PDI/DTT-mediated cleavage of disulfide bond in insulin in the presence of DTT incubated for 40 mins by spectrophotometric analysis; settings: dose 100-200 µM, DDE = dose-dependent effect
Target sequence in this assay (P07237 18-508 limits assumed): as above

Mus musculus [6] = experiment: Antithrombotic activity in anesthetized ICR mouse model of electrically-induced carotid artery thrombosis assessed as inhibition of thrombosis formation by measuring increase in bleeding time at 30 mg/kg, iv; format: functional, organism-based
[7] = molecular target: T2, Protein disulfide-isomerase A6 (Homo sapiens) (UniProt Q15084); experiment: Inhibition of ERp5 (unknown origin) reductase activity assessed as inhibition of PDI/DTT-mediated cleavage of disulfide bond in insulin in the presence of DTT incubated for 40 mins by spectrophotometric analysis; settings: dose 100-200 µM, DDE = dose-dependent effect
T2 sequence (whole entry): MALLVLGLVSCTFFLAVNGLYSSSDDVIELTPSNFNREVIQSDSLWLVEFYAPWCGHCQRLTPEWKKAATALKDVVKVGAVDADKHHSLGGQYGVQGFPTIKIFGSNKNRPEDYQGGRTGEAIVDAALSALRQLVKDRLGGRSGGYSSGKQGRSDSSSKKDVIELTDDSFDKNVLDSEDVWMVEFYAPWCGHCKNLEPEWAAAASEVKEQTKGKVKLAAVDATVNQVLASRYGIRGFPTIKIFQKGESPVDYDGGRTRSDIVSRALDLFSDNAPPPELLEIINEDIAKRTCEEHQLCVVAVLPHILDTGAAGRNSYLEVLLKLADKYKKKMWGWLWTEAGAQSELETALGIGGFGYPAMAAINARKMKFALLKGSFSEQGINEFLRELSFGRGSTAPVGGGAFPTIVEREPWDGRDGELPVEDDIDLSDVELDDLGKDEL

[8] = molecular target: T3, Protein disulfide-isomerase A3 (Homo sapiens) (UniProt P30101); experiment: Inhibition of ERp57 (unknown origin) reductase activity assessed as inhibition of PDI/DTT-mediated cleavage of disulfide bond in insulin in the presence of DTT incubated for 40 mins by spectrophotometric analysis; settings: dose 100-200 µM, DDE = dose-dependent effect
T3 sequence (whole entry): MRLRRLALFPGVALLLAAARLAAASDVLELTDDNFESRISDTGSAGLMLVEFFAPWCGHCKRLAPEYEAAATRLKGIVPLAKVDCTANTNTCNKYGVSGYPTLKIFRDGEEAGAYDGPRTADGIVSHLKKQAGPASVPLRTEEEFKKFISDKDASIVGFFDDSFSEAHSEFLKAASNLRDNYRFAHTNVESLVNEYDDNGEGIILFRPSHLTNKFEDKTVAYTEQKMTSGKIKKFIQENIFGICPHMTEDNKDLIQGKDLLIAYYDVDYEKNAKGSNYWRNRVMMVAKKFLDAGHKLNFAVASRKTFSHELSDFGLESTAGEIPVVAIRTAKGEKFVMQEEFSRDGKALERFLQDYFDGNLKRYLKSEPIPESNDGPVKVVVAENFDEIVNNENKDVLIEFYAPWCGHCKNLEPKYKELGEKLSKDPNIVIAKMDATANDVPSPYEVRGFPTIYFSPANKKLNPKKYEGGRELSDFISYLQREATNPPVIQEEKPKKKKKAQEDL

[9] = Toxicity in anesthetized ICR mouse model of electrically-induced carotid artery thrombosis assessed as thrombus formation by measuring blood loss in tail at 30 mg/kg, iv; format: organism-based; settings: in vivo
[10] = molecular target: T4, Protein disulfide-isomerase A4 (Homo sapiens) (UniProt P13667); experiment: Inhibition of ERp72 (unknown origin) reductase activity assessed as inhibition of PDI/DTT-mediated cleavage of disulfide bond in insulin in the presence of DTT incubated for 40 mins by spectrophotometric analysis; settings: dose 100-200 µM, DDE = dose-dependent effect
T4 sequence (whole entry): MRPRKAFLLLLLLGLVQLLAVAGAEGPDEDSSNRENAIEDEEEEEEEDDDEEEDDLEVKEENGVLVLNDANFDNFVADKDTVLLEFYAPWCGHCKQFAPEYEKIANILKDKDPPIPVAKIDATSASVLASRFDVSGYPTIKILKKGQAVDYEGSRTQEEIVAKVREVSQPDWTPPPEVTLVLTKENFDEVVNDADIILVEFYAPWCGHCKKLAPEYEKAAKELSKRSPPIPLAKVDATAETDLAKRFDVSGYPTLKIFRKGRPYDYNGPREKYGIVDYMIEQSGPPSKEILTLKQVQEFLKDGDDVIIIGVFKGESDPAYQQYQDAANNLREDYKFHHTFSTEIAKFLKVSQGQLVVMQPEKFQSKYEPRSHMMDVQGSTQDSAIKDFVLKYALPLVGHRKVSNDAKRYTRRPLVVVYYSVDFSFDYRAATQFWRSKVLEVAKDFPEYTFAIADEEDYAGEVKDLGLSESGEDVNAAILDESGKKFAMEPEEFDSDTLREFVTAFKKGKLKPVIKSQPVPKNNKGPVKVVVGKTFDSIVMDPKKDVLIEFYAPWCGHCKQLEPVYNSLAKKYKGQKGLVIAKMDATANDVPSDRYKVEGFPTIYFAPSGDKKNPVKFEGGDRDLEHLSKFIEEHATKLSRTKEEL

inhibition [1] | Ki [2] | Activity [3] | SMILES | also measured
Active | 309 µM | Active | COc1cc(C=O)ccc1OC(C)=O | 
 |  | Active | NC(CO)C(=O)NNCc1ccc(O)c(O)c1O (centres undefined) | 
 |  | Active | O=C(Nc1ccccc1)c1ccccc1O | 
 |  | Active | O=c1c(O)c(-c2ccccc2)oc2ccccc12 | 
Active | 5.9 µM | Active | O=c1c(O)c(-c2ccccc2)oc2cc(O)cc(O)c12 [GALANGIN] | Activity (Mus musculus [4]): Active; inhibition [5]: Dde; Activity (Mus musculus [6]): Active; inhibition [7]: Dde; inhibition [8]: Dde; Activity [9]: Non-Toxic; inhibition [10]: Dde
Active | 36.1 µM | Active | O=C(/C=C/c1ccc(O)cc1)c1ccc(O)cc1O [ISOLIQUIRITIGENIN] | 
